Experiments:
[1] = target: T1, Alpha-1D adrenergic receptor (Homo sapiens, UniProt P25100); assay type: cell membranes, HEK293, Membrane; note: in other assays of this panel Not Active means under 50% inhibition at 10 µM
T1 sequence (P25100 whole entry): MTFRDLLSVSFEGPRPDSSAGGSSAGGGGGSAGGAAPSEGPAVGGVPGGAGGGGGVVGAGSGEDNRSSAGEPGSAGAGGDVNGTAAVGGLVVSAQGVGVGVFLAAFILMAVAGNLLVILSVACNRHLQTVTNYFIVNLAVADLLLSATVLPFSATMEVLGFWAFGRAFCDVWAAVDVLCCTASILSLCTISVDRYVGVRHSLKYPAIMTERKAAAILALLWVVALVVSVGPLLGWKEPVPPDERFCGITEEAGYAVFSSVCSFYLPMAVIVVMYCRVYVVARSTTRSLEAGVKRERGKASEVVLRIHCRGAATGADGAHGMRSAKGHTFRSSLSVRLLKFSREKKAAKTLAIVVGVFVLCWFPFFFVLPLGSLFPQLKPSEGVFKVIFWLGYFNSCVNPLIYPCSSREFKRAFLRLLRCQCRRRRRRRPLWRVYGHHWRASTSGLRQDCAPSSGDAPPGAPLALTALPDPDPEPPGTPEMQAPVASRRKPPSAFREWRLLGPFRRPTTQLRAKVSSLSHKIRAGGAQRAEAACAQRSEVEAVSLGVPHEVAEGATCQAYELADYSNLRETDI

[2] = target: T2, Cysteinyl leukotriene receptor 1 (Homo sapiens, UniProt Q9Y271); assay type: cell membranes, CHO-K1, Membrane; details: cho-k1; note: in other assays of this panel Not Active means under 50% inhibition at 10 µM
T2 sequence (Q9Y271 whole entry): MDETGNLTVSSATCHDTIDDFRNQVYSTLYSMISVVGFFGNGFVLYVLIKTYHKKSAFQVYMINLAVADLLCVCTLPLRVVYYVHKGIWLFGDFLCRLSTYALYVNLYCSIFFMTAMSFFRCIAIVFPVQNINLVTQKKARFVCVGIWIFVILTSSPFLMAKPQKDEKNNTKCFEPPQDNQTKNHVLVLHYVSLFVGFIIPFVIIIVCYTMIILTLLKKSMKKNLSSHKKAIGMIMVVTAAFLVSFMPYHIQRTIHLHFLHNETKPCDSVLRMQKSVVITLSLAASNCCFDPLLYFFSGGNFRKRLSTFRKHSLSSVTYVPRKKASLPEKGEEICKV

Substance-P receptor = Substance-P receptor (Homo sapiens, UniProt P25103); assay type: cell membranes, CHO, Membrane; details: cho; note: in other assays of this panel Not Active means under 50% inhibition at 10 µM
[3] = target: T3, Amine oxidase [flavin-containing] A (Homo sapiens, UniProt P21397); experiment: DRUGMATRIX: Monoamine Oxidase MAO-A enzyme inhibition (substrate: Kynuramine); design: species or system BTI-TN-5B1-4; details: bti-tn-5b1-4; Not Active = under 50% inhibition at 10 µM
T3 sequence (P21397 whole entry): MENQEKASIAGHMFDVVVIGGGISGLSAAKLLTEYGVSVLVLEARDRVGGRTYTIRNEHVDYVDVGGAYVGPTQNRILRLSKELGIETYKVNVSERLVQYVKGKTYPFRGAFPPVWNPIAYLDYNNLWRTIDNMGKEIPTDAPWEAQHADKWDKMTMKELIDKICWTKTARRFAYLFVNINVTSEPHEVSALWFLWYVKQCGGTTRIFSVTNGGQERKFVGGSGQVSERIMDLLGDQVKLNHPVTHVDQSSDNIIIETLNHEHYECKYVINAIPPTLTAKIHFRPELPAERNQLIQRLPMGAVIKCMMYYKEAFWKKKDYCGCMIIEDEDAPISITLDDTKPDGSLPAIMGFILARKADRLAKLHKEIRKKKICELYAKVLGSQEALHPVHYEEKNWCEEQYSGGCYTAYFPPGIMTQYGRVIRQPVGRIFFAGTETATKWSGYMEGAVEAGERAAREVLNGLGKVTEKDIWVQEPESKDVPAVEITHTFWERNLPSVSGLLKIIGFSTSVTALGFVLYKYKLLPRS

B2 bradykinin receptor = target: T4, B2 bradykinin receptor (Homo sapiens, UniProt P30411); assay type: cell membranes, Membrane; details: chem-1; note: in other assays of this panel Not Active means under 50% inhibition at 10 µM
T4 sequence (P30411 whole entry): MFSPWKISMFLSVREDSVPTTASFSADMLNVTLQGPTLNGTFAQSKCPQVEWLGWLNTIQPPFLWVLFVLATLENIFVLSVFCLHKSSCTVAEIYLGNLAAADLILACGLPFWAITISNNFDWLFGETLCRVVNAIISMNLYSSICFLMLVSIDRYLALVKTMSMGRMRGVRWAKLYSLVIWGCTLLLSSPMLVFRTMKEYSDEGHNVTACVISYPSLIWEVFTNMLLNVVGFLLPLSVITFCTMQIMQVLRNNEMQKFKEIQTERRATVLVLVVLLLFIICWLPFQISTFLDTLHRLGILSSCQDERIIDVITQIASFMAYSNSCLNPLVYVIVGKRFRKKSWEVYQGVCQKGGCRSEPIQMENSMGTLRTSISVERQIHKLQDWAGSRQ

[4] = DRUGMATRIX: Calcium Channel Type L, Dihydropyridine radioligand binding (ligand: [3H] Nitrendipine); assay type: cell membranes, Rattus norvegicus, Wistar, Cerebral cortex, Membrane; details: Not Active = under 50% inhibition at 10 µM
[5] = DRUGMATRIX: Calcium Channel Type L, Phenylalkylamine radioligand binding (ligand: [3H] (-)-Desmethoxyverapamil (D-888)); assay type: cell membranes, Rattus norvegicus, Wistar, Brain, Membrane; details: Not Active = under 50% inhibition at 10 µM

Chain of Substance-P receptor (P25103 whole entry): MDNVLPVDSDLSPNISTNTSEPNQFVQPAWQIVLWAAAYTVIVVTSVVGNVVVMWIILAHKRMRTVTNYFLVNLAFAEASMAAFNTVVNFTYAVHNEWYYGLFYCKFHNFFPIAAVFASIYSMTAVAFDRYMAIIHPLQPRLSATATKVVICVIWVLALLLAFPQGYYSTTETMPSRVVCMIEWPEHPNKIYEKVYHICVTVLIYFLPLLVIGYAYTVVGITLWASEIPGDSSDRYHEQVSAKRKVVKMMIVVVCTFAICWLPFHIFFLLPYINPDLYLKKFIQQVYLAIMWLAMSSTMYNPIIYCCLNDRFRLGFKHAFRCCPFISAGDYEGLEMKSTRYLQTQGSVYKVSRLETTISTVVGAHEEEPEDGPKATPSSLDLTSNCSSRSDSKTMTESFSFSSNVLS

Compound | IC50 ([1]; read-out: IC50) [nM] | Ki ([1]; read-out: Ki) [nM] | IC50 [2] | IC50 (Substance-P receptor) | IC50 [3] | IC50 (B2 bradykinin receptor) | IC50 [4] | Ki [4] | IC50 ([5]; read-out: IC50) [nM] | Ki ([5]; read-out: Ki) [nM] | IC50 ([1]; hek293) | IC50 [5] | Ki [5] | Ki ([1]; hek293) | Ki [2] | Ki (Substance-P receptor) | Ki [3] | Ki (B2 bradykinin receptor)
CN(C)CCCN1c2ccccc2Sc2ccccc21 [PROMAZINE] | 13 | 6.18 | Not Active | Not Active | Not Active | Not Active | Not Active | Not Active | 1190 | 1160 | – | – | – | – | – | – | – | –
CC(O)CO (stereo unspecified) [PROPYLENE GLYCOL] | – | – | Not Active | Not Active | Not Active | Not Active | Not Active | Not Active | – | – | Not Active | Not Active | Not Active | – | – | – | – | –
CADMIUM ACETATE | – | – | Not Active | Not Active | Not Active | Not Active | Not Active | Not Active | – | – | Not Active | Not Active | Not Active | Not Active | Not Active | Not Active | Not Active | Not Active
LEAD (II) ACETATE | – | – | Not Active | Not Active | Not Active | Not Active | Not Active | Not Active | – | – | Not Active | Not Active | Not Active | Not Active | Not Active | Not Active | Not Active | Not Active
LIPOPOLYSACCHARIDE E. COLI O55:B5 | – | – | Not Active | Not Active | Not Active | Not Active | Not Active | Not Active | – | – | Not Active | Not Active | Not Active | Not Active | Not Active | Not Active | Not Active | Not Active

Source: ChEMBL document CHEMBL1909046, “DrugMatrix in vitro pharmacology data”
